The test system of one series is CYP2C8. Also on record: method as in PMID 25048520, PMID 22752008. As to conditions: human liver microsomes, competitive; read-out: Ki, CYP2C8-mediated paclitaxel 6α-hydroxylation; cited from earlier work.
For the next series, the system named is recombinant human CYP3A4. On the set-up: method as in PMID 25048520, PMID 22752008. As to conditions: cited from earlier work.
The next series has as its target T1, UGT1A3 (Homo sapiens, UniProt P35503).
T1 construct: ultrapooled human liver microsomes (0.2 mg/mL); from tissue; host or cells: human liver microsomes (ultrapooled)
T1 sequence (P35503 29-534): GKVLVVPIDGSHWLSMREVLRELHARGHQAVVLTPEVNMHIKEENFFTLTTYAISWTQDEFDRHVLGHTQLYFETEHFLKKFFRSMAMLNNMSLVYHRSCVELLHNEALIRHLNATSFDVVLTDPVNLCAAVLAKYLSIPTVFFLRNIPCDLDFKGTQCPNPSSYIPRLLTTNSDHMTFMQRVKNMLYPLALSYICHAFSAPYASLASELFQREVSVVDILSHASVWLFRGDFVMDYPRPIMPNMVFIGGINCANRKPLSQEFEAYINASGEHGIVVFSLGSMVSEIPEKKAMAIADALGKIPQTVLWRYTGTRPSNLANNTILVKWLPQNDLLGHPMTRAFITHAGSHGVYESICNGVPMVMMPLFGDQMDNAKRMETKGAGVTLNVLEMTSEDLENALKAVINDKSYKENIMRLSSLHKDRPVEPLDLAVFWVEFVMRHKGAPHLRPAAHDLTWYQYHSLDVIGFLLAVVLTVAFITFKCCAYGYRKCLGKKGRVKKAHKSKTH
Briefly: Inhibition of UGT1A3-catalyzed chenodeoxycholic acid 24-acyl-β-glucuronidation in ultrapooled human liver microsomes. The class given is in vitro ADME. The method, then: The inhibitory potential of mertansine on UGT1A1, UGT1A3, UGT1A4, UGT1A6, UGT1A9, and UGT2B7 activities was evaluated using liquid chromatography–tandem mass spectrometry (LC-MS/MS) with a cocktail of UGT substrates and ultrapooled human liver microsomes. Each incubation mixture was prepared to a final volume of 100 μL as follows: ultrapooled human liver microsomes (0.2 mg/mL), 5 mM UDPGA, 10 mM magnesium chloride, alamethicin (25 μg/mL), 50 mM Tris buffer (pH 7.4), various concentrations of mertansine in methanol (final concentrations of 0.01–50 μM), and the cocktail sets of UGT enzyme-specific substrates. Two cocktail sets were used: set A contained 0.5 μM SN-38 for UGT1A1, 2 μM chenodeoxycholic acid for UGT1A3, and 0.5 μM trifluoperazine for UGT1A4; and set B contained 1 μM N-acetylserotonin for UGT1A6, 0.2 μM mycophenolic acid for UGT1A9, and 1 μM naloxone for UGT2B7. The reactions were initiated by adding UDPGA and incubated in a shaking water bath for 60 min at 37 °C. […] Next, 50 μL of each supernatant of sets A and B was mixed, and aliquots (5 μL) were analyzed using LC-MS/MS. […]
The LC-MS/MS system was comprised of an Agilent 6495 triple quadrupole mass spectrometer coupled with an Agilent 1290 Infinity system (Agilent Technologies, Wilmington, DE, USA). […] The electrospray ionization (ESI) source settings in both positive and negative ion modes were as follows: gas temperature, 200 °C; gas flow, 14 L/min; nebulizer, 40 psi; sheath gas temperature, 380 °C; sheath gas flow, 11 L/min; capillary voltage, 4500 V; and nozzle voltage, 500 V. Each metabolite was quantified via selected reaction monitoring in the negative ion mode (chenodeoxycholic acid 24-acyl-β-glucuronide, m/z 567.1 to 391.2; mycophenolic acid β-D-glucuronide, m/z 495.0 to 319.0; propofol glucuronide (IS), m/z 353.0 to 177.0) and in the positive ion mode (SN-38 glucuronide, m/z 568.9 to 392.9; trifluoperazine N-β-D-glucuronide, m/z 583.9 to 407.9; N-acetylserotonin β-D-glucuronide, m/z 394.0 to 219.0; naloxone 3-β-D-glucuronide, m/z 503.9 to 309.9; meloxicam (IS), m/z 351.9 to 115.0). […]

Another series deals with CYP3A4 mRNA. Briefly: in vitro. The following applies: human, hepatocytes, IC50, suppression of CYP3A4 mRNA expression, 1.25–2500 nM.

“Also recorded” adds a separate entry of the source.

In general, Ki refers to the equilibrium dissociation constant of an inhibitor or competing ligand from its target. What is called IC50 is the concentration that gives 50% inhibition. Take `COc1cc2cc(c1Cl)N(C)C(=O)CC(OC(=O)C(C)N(C)C(=O)CCS)C1(C)OC1C(C)C1CC(O)(NC(=O)O1)C(OC)C=CC=C(C)C2` (stereo not shown) [mertansine, Mertansine]: the Ki is 11000 nM in the series with CYP2C8 and 4300 nM on UGT1A3 (human liver microsomes, chenodeoxycholic acid 0.5–5 µM). For the same compound, the KI (inactivation) in the series with recombinant human CYP3A4 (recombinant human CYP3A4, irreversible inhibition, read-out: Ki, inactivation of midazolam 1′-hydroxylation) is 3400 nM. Also, the “kinact, inactivation of midazolam 1′-hydroxylation” value in the series with recombinant human CYP3A4 (recombinant human CYP3A4) is 0.058 min⁻¹. In addition, the “Inhibition Mode, UGT1A3” value at UGT1A3 (human liver microsomes, Dixon plot) was “competitively inhibited; also recorded: competitive inhibitor”. The half-inhibitory concentration (IC50) at UGT1A3 (ultrapooled human liver microsomes, 2 µM chenodeoxycholic acid (cocktail)) came out at 6400 nM; in the series on CYP3A4 mRNA (Mean ± SD of three human hepatocyte lots, 48 h), 161 ± 167 nM; in the series on CYP3A4 mRNA (human hepatocytes Lot 319, 48 h), 344 nM; with CYP3A4 mRNA (human hepatocytes Lot 321, 48 h), 120 nM; in the series with CYP3A4 mRNA (human hepatocytes Lot 361, 48 h), 16.8 nM.
